# Measurements as given in PubChem BioAssay (NCI).
#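 Dose response: 5 concentrations. Exposure: 48 h. Format: 96-well plates. Endpoint: linear interpolation; highest concentration if not reached. At the GI50, growth is halved. TGI denotes the concentration required for complete inhibition of growth.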
# Key:
# Test in all cases: NCI anticancer screen, dose series, 48 h
# SN12C renal = system: SN12C renal
# NCI-H460 lung = system: NCI-H460 lung
# 786-0 renal = system: 786-0 renal
# SW-620 colon = system: SW-620 colon
# HS 578T breast = system: HS 578T breast
# TK-10 renal = system: TK-10 renal
# MALME-3M melanoma = system: MALME-3M melanoma
# HOP-62 NSCLC = system: HOP-62 NSCLC
# A549 NSCLC = system: A549 NSCLC
# UACC-257 melanoma = system: UACC-257 melanoma
# T-47D breast = system: T-47D breast
# HCT-15 colon = system: HCT-15 colon
# A498 renal = system: A498 renal
# SR leukemia = system: SR leukemia
# EKVX NSCLC = system: EKVX NSCLC
# OVCAR-8 ovarian = system: OVCAR-8 ovarian
# NCI/ADR-RES ovarian = system: NCI/ADR-RES ovarian
# NCI-H522 lung = system: NCI-H522 lung
# RPMI-8226 leukemia = system: RPMI-8226 leukemia
# MOLT-4 leukemia = system: MOLT-4 leukemia
# OVCAR-3 ovarian = system: OVCAR-3 ovarian
# HL-60(TB) leukemia = system: HL-60(TB) leukemia
# HOP-92 NSCLC = system: HOP-92 NSCLC
# RXF 393 renal = system: RXF 393 renal
# SK-OV-3 ovarian = system: SK-OV-3 ovarian
# UO-31 renal = system: UO-31 renal
# M14 melanoma = system: M14 melanoma
# LOX IMVI melanoma = system: LOX IMVI melanoma
compound,measurement,setting,value
COCCOCCOCCOCCOc1ccc2c(c1)C(=O)c1nc3ncccc3c(=O)n1-2,GI50,SN12C renal,1380 nM
same,TGI,SN12C renal,2910 nM
same,GI50,NCI-H460 lung,400 nM
same,TGI,NCI-H460 lung,1390 nM
same,GI50,786-0 renal,2170 nM
same,TGI,786-0 renal,9460 nM
same,GI50,SW-620 colon,1150 nM
same,TGI,SW-620 colon,2360 nM
same,GI50,HS 578T breast,1090 nM
same,TGI,HS 578T breast,4020 nM
same,GI50,TK-10 renal,1290 nM
same,TGI,TK-10 renal,2690 nM
same,GI50,MALME-3M melanoma,155 nM
same,TGI,MALME-3M melanoma,339 nM
same,GI50,HOP-62 NSCLC,744 nM
same,TGI,HOP-62 NSCLC,2180 nM
same,GI50,A549 NSCLC,465 nM
same,TGI,A549 NSCLC,2410 nM
same,GI50,UACC-257 melanoma,763 nM
same,TGI,UACC-257 melanoma,2380 nM
same,GI50,T-47D breast,3030 nM
same,TGI,T-47D breast,9040 nM
same,GI50,HCT-15 colon,1210 nM
same,TGI,HCT-15 colon,2600 nM
same,GI50,A498 renal,1770 nM
same,TGI,A498 renal,3160 nM
same,GI50,SR leukemia,2250 nM
same,TGI,SR leukemia,> 100000 nM
same,GI50,EKVX NSCLC,1870 nM
same,TGI,EKVX NSCLC,5280 nM
same,GI50,OVCAR-8 ovarian,1570 nM
same,TGI,OVCAR-8 ovarian,6890 nM
same,GI50,NCI/ADR-RES ovarian,2090 nM
same,TGI,NCI/ADR-RES ovarian,6410 nM
same,GI50,NCI-H522 lung,1670 nM
same,TGI,NCI-H522 lung,3300 nM
same,GI50,RPMI-8226 leukemia,1860 nM
same,TGI,RPMI-8226 leukemia,4940 nM
same,GI50,MOLT-4 leukemia,3610 nM
same,TGI,MOLT-4 leukemia,> 100000 nM
same,GI50,OVCAR-3 ovarian,969 nM
same,TGI,OVCAR-3 ovarian,3390 nM
same,GI50,HL-60(TB) leukemia,1800 nM
same,TGI,HL-60(TB) leukemia,5050 nM
same,GI50,HOP-92 NSCLC,8230 nM
same,TGI,HOP-92 NSCLC,29500 nM
same,GI50,RXF 393 renal,2650 nM
same,TGI,RXF 393 renal,9260 nM
same,GI50,SK-OV-3 ovarian,2810 nM
same,TGI,SK-OV-3 ovarian,6990 nM
same,GI50,UO-31 renal,1530 nM
same,TGI,UO-31 renal,6210 nM
same,GI50,M14 melanoma,312 nM
same,TGI,M14 melanoma,1440 nM
same,GI50,LOX IMVI melanoma,390 nM
same,TGI,LOX IMVI melanoma,1620 nM
